According to patent US12258328B2, “6-membered heteroaryl-containing aminopyridine compounds as EGFR inhibitors” (YUHAN CORPORATION, priority 2021, dated 2025):
Where two headings read alike, the source gives them in different places.

Columns and labels:
EGFR del19/T790M/C797S = EGFR del19/T790M/C797S (Homo sapiens, UniProt P00533, C797S/DEL746-750/T790M); assay: Biochemical EGFR kinase assay (Lance Ultra TR-FRET), triple mutant del19/T790M/C797S
Procedure: (§1) Biochemical EGFR kinase assays were conducted using Lance Ultra time-resolved fluorescence resonance energy transfer (TR-FRET) technology from Perkin-Elmer. Compounds of the invention were initially diluted to 20 mM in 100% DMSO for storage and made into kinase buffer solution to create a compound concentration ranging from 0.003 μM and 10 μM.
(§2) Each kinase reactions were incubated at room temperature for 1 hour and then stopped by the addition of 4 μL of stop solution (10 mM EDTA). The specific Europium-labeled-anti-phosphopeptide antibody (PerkinElmer, AD0069) diluted in LANCE detection buffer was then added to a final concentration of 2 nM. After 60 minutes incubation at room temperature the LANCE signal was measured on an EnVision Multilabel Reader (Perkin-Elmer). Excitation wavelength was set at 320 nm and emission monitored at 615 nm (donor) and 665 nm (acceptor). The IC50 values were determined using GraphPad prism software (GraphPad Software, Inc., San Diego, CA, USA).

EGFR L858R/C797S = EGFR L858R/C797S (Homo sapiens, UniProt P00533, C797S/L858R); assay: Biochemical EGFR kinase assay (Lance Ultra TR-FRET), double mutant L858R/C797S
Procedure: as §1, §2

EGFR wildtype = EGFR wildtype (Homo sapiens, UniProt P00533); assay: Biochemical EGFR kinase assay (Lance Ultra TR-FRET), wildtype
Procedure: as §1, §2

EGFR del19/C797S = EGFR del19/C797S (Homo sapiens, UniProt P00533, C797S/DEL746-750); assay: Biochemical EGFR kinase assay (Lance Ultra TR-FRET), double mutant del19/C797S
Procedure: as §1, §2

EGFR L858R/T790M/C797S = EGFR L858R/T790M/C797S (Homo sapiens, UniProt P00533, C797S/L858R/T790M); assay: Biochemical EGFR kinase assay (Lance Ultra TR-FRET), triple mutant L858R/T790M/C797S
Procedure: as §1, §2

[1] = IC50 del19/T790M/C797S (nM) 100 μM ATP, 100 μM ATP
[2] = Km ATP, read-out: IC50 del19/T790M/C797S (nM) Km ATP
[3] = IC50 L858R/C797S (nM) 100 μM ATP, 100 μM ATP
[4] = Km ATP, read-out: IC50 L858R/C797S (nM) Km ATP
[5] = IC50 WT (nM) 100 μM ATP, 100 μM ATP
[6] = Km ATP, read-out: IC50 WT (nM) Km ATP
[7] = Km ATP, read-out: IC50 del19/C797S (nM) Km ATP
[8] = IC50 L858R/T790M/C797S (nM) 100 μM ATP, 100 μM ATP
[9] = Km ATP, read-out: IC50 L858R/T790M/C797S (nM) Km ATP
[10] = IC50 del19/C797S (nM) 100 μM ATP, 100 μM ATP
[11] = ATP at Km, read-out: IC50 del19/T790M/C797S, Km ATP
[12] = ATP at Km, read-out: IC50 L858R/C797S, Km ATP
[13] = ATP at Km, read-out: IC50 WT, Km ATP
[14] = ATP at Km, read-out: IC50 del19/C797S, Km ATP
[15] = ATP at Km, read-out: IC50 L858R/T790M/C797S, Km ATP
[16] = IC50 del19/T790M/C797S, 100 μM ATP
[17] = IC50 L858R/T790M/C797S, 100 μM ATP

Chain of EGFR L858R/C797S (P00533 25-1210 C797S/L858R): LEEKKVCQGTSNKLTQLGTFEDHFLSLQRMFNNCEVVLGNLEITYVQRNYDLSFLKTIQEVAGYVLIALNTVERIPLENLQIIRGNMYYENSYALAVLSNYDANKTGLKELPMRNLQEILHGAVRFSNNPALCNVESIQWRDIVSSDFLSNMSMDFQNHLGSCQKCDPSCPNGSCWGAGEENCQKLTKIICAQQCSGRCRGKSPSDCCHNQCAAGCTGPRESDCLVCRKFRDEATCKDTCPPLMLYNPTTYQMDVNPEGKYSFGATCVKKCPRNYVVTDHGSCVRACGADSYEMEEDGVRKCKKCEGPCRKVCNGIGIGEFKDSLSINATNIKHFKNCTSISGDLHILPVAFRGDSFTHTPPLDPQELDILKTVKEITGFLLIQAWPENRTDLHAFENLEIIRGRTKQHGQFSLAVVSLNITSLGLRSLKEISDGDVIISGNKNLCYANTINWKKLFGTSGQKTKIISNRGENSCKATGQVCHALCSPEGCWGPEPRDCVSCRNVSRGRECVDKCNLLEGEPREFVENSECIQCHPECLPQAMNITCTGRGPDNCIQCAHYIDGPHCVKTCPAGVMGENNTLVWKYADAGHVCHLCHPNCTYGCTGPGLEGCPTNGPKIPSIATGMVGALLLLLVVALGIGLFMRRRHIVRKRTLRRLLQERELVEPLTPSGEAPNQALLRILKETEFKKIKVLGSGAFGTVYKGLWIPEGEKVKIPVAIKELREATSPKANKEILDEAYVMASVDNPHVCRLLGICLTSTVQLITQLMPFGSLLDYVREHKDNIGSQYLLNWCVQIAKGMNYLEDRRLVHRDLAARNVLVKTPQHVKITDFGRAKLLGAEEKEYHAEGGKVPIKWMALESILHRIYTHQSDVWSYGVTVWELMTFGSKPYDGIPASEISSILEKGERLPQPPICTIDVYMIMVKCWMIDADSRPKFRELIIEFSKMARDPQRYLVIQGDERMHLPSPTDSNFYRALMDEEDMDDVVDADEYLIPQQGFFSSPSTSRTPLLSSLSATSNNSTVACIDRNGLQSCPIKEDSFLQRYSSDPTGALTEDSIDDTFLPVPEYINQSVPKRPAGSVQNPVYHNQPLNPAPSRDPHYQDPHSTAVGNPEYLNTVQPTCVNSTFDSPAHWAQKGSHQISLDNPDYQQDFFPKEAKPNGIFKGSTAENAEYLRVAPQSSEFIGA
Chain of EGFR wildtype (P00533 25-1210): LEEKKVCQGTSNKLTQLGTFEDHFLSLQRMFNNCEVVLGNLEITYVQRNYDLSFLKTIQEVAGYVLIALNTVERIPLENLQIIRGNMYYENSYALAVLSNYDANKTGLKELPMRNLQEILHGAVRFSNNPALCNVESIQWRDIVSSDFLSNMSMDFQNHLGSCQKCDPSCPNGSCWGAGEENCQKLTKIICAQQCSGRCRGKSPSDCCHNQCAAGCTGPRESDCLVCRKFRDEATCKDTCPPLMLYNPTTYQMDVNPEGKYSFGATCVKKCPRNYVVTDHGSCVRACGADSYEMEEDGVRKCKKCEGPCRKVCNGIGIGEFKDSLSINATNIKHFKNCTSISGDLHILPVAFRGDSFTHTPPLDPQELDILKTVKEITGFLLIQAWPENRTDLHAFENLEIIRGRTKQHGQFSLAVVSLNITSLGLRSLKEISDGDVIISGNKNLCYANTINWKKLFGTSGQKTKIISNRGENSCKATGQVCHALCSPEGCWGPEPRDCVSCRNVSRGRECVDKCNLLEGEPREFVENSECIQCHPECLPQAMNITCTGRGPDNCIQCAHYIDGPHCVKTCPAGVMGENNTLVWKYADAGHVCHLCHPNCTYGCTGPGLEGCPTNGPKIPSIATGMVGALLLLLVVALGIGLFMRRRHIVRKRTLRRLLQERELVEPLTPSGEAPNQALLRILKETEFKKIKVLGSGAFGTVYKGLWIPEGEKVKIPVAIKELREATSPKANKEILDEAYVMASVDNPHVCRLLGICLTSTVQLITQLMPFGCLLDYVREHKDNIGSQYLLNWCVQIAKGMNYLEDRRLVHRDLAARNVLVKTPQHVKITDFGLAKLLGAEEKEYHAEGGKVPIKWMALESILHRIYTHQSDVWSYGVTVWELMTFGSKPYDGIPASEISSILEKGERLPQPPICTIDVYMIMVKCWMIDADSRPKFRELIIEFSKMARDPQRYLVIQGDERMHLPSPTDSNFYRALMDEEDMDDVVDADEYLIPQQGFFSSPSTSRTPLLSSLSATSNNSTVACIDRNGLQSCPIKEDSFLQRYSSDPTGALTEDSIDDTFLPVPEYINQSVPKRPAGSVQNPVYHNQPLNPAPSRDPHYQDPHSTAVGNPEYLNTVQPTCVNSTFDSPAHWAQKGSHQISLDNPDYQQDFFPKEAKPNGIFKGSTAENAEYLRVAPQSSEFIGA
Chain of EGFR L858R/T790M/C797S (P00533 25-1210 T790M/C797S/L858R): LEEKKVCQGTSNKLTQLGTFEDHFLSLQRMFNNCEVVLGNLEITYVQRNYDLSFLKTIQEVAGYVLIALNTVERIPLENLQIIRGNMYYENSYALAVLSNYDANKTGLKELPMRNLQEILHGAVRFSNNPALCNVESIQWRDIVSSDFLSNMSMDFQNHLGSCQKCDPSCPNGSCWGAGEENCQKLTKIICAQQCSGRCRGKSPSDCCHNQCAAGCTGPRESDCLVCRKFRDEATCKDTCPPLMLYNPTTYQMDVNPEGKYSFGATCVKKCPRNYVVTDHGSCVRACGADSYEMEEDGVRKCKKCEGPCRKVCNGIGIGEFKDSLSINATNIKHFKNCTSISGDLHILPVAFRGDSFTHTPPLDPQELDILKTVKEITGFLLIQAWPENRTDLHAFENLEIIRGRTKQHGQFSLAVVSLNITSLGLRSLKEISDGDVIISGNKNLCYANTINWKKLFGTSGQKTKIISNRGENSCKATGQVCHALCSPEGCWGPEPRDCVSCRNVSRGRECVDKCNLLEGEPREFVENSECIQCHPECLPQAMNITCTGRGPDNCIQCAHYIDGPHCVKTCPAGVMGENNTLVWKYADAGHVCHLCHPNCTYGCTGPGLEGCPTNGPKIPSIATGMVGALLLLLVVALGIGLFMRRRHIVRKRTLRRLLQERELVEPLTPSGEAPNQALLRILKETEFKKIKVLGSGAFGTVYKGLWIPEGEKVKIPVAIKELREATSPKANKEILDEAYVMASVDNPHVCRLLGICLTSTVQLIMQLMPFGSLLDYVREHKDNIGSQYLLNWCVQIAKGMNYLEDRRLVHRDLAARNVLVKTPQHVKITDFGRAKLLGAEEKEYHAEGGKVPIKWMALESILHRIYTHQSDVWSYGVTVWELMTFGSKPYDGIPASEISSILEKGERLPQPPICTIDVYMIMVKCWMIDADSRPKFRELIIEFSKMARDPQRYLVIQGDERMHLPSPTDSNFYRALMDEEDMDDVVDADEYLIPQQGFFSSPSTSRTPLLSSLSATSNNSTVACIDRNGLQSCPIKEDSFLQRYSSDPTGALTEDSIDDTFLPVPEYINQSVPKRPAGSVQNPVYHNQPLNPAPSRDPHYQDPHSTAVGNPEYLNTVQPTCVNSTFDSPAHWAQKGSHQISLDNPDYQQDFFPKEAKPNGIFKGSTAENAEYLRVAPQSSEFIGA
Chain of EGFR del19/T790M/C797S (P00533 with tags, fused parts or gaps DEL746-750/T790M/C797S): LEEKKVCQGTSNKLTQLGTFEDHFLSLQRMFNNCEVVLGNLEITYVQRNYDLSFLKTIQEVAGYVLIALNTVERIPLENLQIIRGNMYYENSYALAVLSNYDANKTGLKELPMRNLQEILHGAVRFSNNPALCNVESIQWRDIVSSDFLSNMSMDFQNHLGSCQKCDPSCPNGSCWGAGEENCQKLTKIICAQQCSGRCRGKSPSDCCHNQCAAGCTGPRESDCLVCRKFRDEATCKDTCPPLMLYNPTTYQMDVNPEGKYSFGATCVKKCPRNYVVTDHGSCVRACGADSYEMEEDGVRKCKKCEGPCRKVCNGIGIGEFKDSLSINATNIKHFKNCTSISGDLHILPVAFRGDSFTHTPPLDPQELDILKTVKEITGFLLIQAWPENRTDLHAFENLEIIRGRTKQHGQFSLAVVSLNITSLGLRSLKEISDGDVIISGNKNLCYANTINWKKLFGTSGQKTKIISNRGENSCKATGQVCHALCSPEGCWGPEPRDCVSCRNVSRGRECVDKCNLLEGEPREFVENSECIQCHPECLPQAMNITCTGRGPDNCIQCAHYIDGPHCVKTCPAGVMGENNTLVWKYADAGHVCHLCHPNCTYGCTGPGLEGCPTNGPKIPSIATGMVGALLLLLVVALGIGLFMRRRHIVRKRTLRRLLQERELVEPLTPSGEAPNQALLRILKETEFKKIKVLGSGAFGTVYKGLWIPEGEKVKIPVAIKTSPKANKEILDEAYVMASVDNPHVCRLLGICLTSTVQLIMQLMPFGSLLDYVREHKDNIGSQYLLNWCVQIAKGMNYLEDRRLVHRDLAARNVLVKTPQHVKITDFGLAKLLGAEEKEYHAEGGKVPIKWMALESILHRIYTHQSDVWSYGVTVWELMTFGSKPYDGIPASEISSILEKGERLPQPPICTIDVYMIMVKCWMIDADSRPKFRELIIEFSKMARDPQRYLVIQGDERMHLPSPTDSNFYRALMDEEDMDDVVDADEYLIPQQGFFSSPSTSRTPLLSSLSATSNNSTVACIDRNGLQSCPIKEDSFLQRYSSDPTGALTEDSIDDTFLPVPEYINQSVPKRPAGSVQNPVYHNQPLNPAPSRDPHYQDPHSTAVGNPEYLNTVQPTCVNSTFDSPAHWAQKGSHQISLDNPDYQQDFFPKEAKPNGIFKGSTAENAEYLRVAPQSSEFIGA

| Compound | IC50 (EGFR del19/T790M/C797S; [1]) | IC50 (EGFR del19/T790M/C797S; [2]) | IC50 (EGFR L858R/C797S; [3]) | IC50 (EGFR L858R/C797S; [4]) | IC50 (EGFR wildtype; [5]) | IC50 (EGFR wildtype; [6]) | IC50 (EGFR del19/C797S; [7]) | IC50 (EGFR L858R/T790M/C797S; [8]) | IC50 (EGFR L858R/T790M/C797S; [9]) | IC50 (EGFR del19/C797S; [10]) | IC50 (EGFR del19/T790M/C797S; [11]) | IC50 (EGFR L858R/C797S; [12]) | IC50 (EGFR wildtype; [13]) | IC50 (EGFR del19/C797S; [14]) | IC50 (EGFR L858R/T790M/C797S; [15]) | IC50 (EGFR del19/T790M/C797S; [16]) | IC50 (EGFR L858R/C797S; IC50 L858R/C797S, 100 μM ATP) | IC50 (EGFR wildtype; IC50 WT, 100 μM ATP) | IC50 (EGFR del19/C797S; IC50 del19/C797S, 100 μM ATP) | IC50 (EGFR L858R/T790M/C797S; [17]) |
| --- | --- | --- | --- | --- | --- | --- | --- | --- | --- | --- | --- | --- | --- | --- | --- | --- | --- | --- | --- | --- |
| C[C@]1(O)CC[C@@H](Nc2cc(Nc3ccnc(-c4cnn(S(=O)(=O)C5CC5)c4)n3)ncc2-c2ccc(C#N)cn2)CC1 [Example 7, 6′-((2-(1-(Cyclopropylsulfonyl)-1H-pyrazol-4-yl)pyrimidin-4-yl)amino)-4′-(((1s,4s)-4-hydroxy-4-methylcyclohexyl)amino)-[2,3′-bipyridine]-5-carbonitrile] | 0.2 nM | 0.4 nM | 12.4 nM | 0.6 nM | > 10000 nM | 3 nM | 0.5 nM | 0.2 nM | 0.1 nM |  |  |  |  |  |  |  |  |  |  |  |
| C[C@]1(O)CC[C@@H](Nc2cc(Nc3ccnc(-c4cnn(S(=O)(=O)C5CC5)c4)n3)ncc2-c2ccc(CN3CCC(F)(F)CC3)cn2)CC1 [Example 33, (1s,4s)-4-((6′-((2-(1-(Cyclopropylsulfonyl)-1H-pyrazol-4-yl)pyrimidin-4-yl)amino)-5-((4,4-difluoropiperidin-1-yl)methyl)-[2,3′-bipyridin]-4′-yl)amino)-1-methylcyclohexan-1-ol] | 3.9 nM | 2.6 nM | 29.3 nM | 1.7 nM | 813 nM | 7.9 nM | 2.1 nM | 3.1 nM | 1.7 nM | 1.3 nM |  |  |  |  |  |  |  |  |  |  |
| CN(C)Cc1cnc(-c2cnc(Nc3ccnc(-c4cnn(S(=O)(=O)C5CC5)c4)n3)cc2N[C@H]2CC[C@@](C)(O)CC2)cn1 [Example 65, (1s,4s)-4-((2-((2-(1-(Cyclopropylsulfonyl)-1H-pyrazol-4-yl)pyrimidin-4-yl)amino)-5-(5-((dimethylamino)methyl)pyrazin-2-yl)pyridin-4-yl)amino)-1-methylcyclohexan-1-ol] | 0.1 nM | 0.1 nM | 0.9 nM | 0.1 nM | 1140 nM | 2.4 nM | 0.3 nM | 0.3 nM | 0.1 nM | 0.2 nM |  |  |  |  |  |  |  |  |  |  |
| C[C@]1(O)CC[C@@H](Nc2cc(Nc3ccnc(-c4cnn(S(=O)(=O)C5CC5)c4)n3)ncc2-c2cnc(N3CCOCC3)cn2)CC1 [Example 44, (1s,4s)-4-((2-((2-(1-(Cyclopropylsulfonyl)-1H-pyrazol-4-yl)pyrimidin-4-yl)amino)-5-(5-morpholinopyrazin-2-yl)pyridin-4-yl)amino)-1-methylcyclohexan-1-ol] | 0.6 nM |  | 7.1 nM |  | > 10000 nM |  |  | 0.6 nM |  | 0.8 nM |  |  |  |  |  |  |  |  |  |  |
| CC(C)(O)[C@H]1CC[C@@H](Nc2cc(Nc3ccnc(-c4cnn(S(=O)(=O)C5CC5)c4)n3)ncc2-c2ccc(N3CCCC3)cn2)CC1 [Example 82, 2-((1s,4s)-4-((6′-((2-(1-(Cyclopropylsulfonyl)-1H-pyrazol-4-yl)pyrimidin-4-yl)amino)-5-(pyrrolidin-1-yl)-[2,3′-bipyridin]-4′-yl)amino)cyclohexyl)propan-2-ol] | 10.5 nM | 6.5 nM | 73.3 nM | 7.8 nM | > 10000 nM | 29.6 nM | 7.9 nM | 15.4 nM | 2.8 nM | 13.3 nM |  |  |  |  |  |  |  |  |  |  |

Next, values leading:

| IC50 (EGFR del19/T790M/C797S; [1]) | IC50 (EGFR del19/T790M/C797S; [2]) | IC50 (EGFR L858R/C797S; [3]) | IC50 (EGFR L858R/C797S; [4]) | IC50 (EGFR wildtype; [5]) | IC50 (EGFR wildtype; [6]) | IC50 (EGFR del19/C797S; [7]) | IC50 (EGFR L858R/T790M/C797S; [8]) | IC50 (EGFR L858R/T790M/C797S; [9]) | IC50 (EGFR del19/C797S; [10]) | IC50 (EGFR del19/T790M/C797S; [11]) | IC50 (EGFR L858R/C797S; [12]) | IC50 (EGFR wildtype; [13]) | IC50 (EGFR del19/C797S; [14]) | IC50 (EGFR L858R/T790M/C797S; [15]) | IC50 (EGFR del19/T790M/C797S; [16]) | IC50 (EGFR L858R/C797S; IC50 L858R/C797S, 100 μM ATP) | IC50 (EGFR wildtype; IC50 WT, 100 μM ATP) | IC50 (EGFR del19/C797S; IC50 del19/C797S, 100 μM ATP) | IC50 (EGFR L858R/T790M/C797S; [17]) | Compound |
| --- | --- | --- | --- | --- | --- | --- | --- | --- | --- | --- | --- | --- | --- | --- | --- | --- | --- | --- | --- | --- |
| 0.1 nM | 0.1 nM | 3.9 nM | 0.2 nM | 1640 nM | 2.7 nM | 0.3 nM | 0.1 nM | 0.1 nM | 0.1 nM |  |  |  |  |  |  |  |  |  |  | CN(C)C[C@H]1CC[C@@H](Nc2cc(Nc3ccnc(-c4cnn(S(=O)(=O)C5CC5)c4)n3)ncc2-c2ccc(C(C)(C)O)nn2)CC1 [Example 89, 2-(6-(6-((2-(1-(Cyclopropylsulfonyl)-1H-pyrazol-4-yl)pyrimidin-4-yl)amino)-4-(((1s,4s)-4-((dimethylamino)methyl)cyclohexyl)amino)pyridin-3-yl)pyridazin-3-yl)propan-2-ol] |
|  |  |  |  |  |  |  |  |  |  | 0.4 nM | 0.4 nM | 0.3 nM | 0.4 nM | 0.2 nM |  |  |  |  |  | CN1CCC(Oc2ccc(-c3cnc(Nc4ccnc(-c5cnn(S(=O)(=O)C6CC6)c5)n4)cc3N[C@H]3CC[C@@](C)(O)CC3)nc2)CC1 [Example 250, (1s,4s)-4-((6′-((2-(1-(Cyclopropylsulfonyl)-1H-pyrazol-4-yl)pyrimidin-4-yl)amino)-5-((1-methylpiperidin-4-yl)oxy)-[2,3′-bipyridin]-4′-yl)amino)-1-methylcyclohexan-1-ol] |
|  |  |  |  |  |  |  |  |  |  | 0.1 nM | 0.6 nM | 61.6 nM | 3.8 nM | 0.1 nM |  |  |  |  |  | CN1CCC(Oc2ccc(-c3cnc(Nc4ccnc(-c5cnn(S(=O)(=O)C6CC6)c5)n4)cc3NC3CCN(CCF)CC3)nc2)CC1 [Example 256, N^6′-(2-(1-(Cyclopropylsulfonyl)-1H-pyrazol-4-yl)pyrimidin-4-yl)-N^4′-(1-(2-fluoroethyl)piperidin-4-yl)-5-((1-methylpiperidin-4-yl)oxy)-[2,3′-bipyridine]-4′,6′-diamine] |
|  |  |  |  |  |  |  |  |  |  | 0.3 nM | 0.5 nM | 2.2 nM | 0.5 nM | 0.1 nM | 0.4 nM | 1.8 nM | 1040 nM | 0.6 nM | 0.4 nM | CC(C)(O)[C@H]1CC[C@@H](Nc2cc(Nc3ccnc(-c4cnn(S(=O)(=O)C5CC5)c4)n3)ncc2-c2ccc(C(=O)N3CCOCC3)cn2)CC1 [Example 201, (6′-((2-(1-(Cyclopropylsulfonyl)-1H-pyrazol-4-yl)pyrimidin-4-yl)amino)-4′-(((1s,4s)-4-(2-hydroxypropan-2-yl)cyclohexyl)amino)-[2,3′-bipyridin]-5-yl)(morpholino)methanone] |
|  |  |  |  |  |  |  |  |  |  |  | 0.8 nM | 9.5 nM | 2.3 nM |  | 1.1 nM | 11.3 nM | > 10000 nM | 1.8 nM | 1 nM | CN1CCN(S(=O)(=O)c2ccc(-c3cnc(Nc4ccnc(-c5cnn(S(=O)(=O)C6CC6)c5)n4)cc3N[C@H]3CC[C@@](C)(O)CC3)nc2)CC1 [Example 188, (1s,4s)-4-((6′-((2-(1-(Cyclopropylsulfonyl)-1H-pyrazol-4-yl)pyrimidin-4-yl)amino)-5-((4-methylpiperazin-1-yl)sulfonyl)-[2,3′-bipyridin]-4′-yl)amino)-1-methylcyclohexan-1-ol] |
| 0.4 nM | 0.2 nM | 0.5 nM | 0.2 nM | 6500 nM | 1.9 nM | 0.3 nM | 0.1 nM | 0.1 nM | 0.5 nM |  |  |  |  |  |  |  |  |  |  | CN(C)CCOc1cnc(-c2cnc(Nc3ccnc(-c4cnn(S(=O)(=O)C5CC5)c4)n3)cc2N[C@H]2CC[C@@H](C(C)(C)O)CC2)cn1 [Example 117, 2-((1s,4s)-4-((2-((2-(1-(Cyclopropylsulfonyl)-1H-pyrazol-4-yl)pyrimidin-4-yl)amino)-5-(5-(2-(dimethylamino)ethoxy)pyrazin-2-yl)pyridin-4-yl)amino)cyclohexyl)propan-2-ol] |
|  |  |  |  |  |  |  |  |  |  | 0.2 nM |  | 43.4 nM | 5.5 nM | 0.4 nM |  |  |  |  |  | CC(C)(O)c1ccc(-c2cnc(Nc3ccnc(-c4cnn(S(=O)(=O)C5CC5)c4)n3)cc2NC2CCN(CCF)CC2)nc1 [Example 176, 2-(6′-((2-(1-(Cyclopropylsulfonyl)-1H-pyrazol-4-yl)pyrimidin-4-yl)amino)-4′-((1-(2-fluoroethyl)piperidin-4-yl)amino)-[2,3′-bipyridin]-5-yl)propan-2-ol] |
